According to ChEMBL document CHEMBL1667742, “Angiotensin II receptor type 1 (AT1) selective nonpeptidic antagonists--a perspective” (Bioorg Med Chem, 2010):
Where a chain is given by its changes, count along the chain named.

Assays:
[1] = Binding affinity to angiotensin AT1 receptor in rat liver membranes; type: cell membranes, Membrane
[2] = target: T1, Type-1 angiotensin II receptor (Oryctolagus cuniculus) (UniProt P34976); assay: (§1) Antagonist activity at angiotensin AT1 receptor in rabbit aorta; type: functional, tissue-based
T1 sequence (whole entry): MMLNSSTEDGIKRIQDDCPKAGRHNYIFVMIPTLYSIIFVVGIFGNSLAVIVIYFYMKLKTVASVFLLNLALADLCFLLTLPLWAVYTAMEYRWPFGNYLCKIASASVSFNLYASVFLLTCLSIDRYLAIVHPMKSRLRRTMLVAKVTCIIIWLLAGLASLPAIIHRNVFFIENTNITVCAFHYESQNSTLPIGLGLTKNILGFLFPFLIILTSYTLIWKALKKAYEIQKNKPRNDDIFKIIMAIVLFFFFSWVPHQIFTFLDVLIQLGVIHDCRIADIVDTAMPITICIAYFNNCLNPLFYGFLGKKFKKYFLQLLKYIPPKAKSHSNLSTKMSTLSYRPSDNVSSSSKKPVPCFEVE

[3] = target: T2, Type-1 angiotensin II receptor (Bos taurus) (UniProt P25104); assay: Binding affinity to angiotensin AT1 receptor in bovine adrenal cortex membranes; type: cell membranes; conditions: Membrane
T2 sequence (whole entry): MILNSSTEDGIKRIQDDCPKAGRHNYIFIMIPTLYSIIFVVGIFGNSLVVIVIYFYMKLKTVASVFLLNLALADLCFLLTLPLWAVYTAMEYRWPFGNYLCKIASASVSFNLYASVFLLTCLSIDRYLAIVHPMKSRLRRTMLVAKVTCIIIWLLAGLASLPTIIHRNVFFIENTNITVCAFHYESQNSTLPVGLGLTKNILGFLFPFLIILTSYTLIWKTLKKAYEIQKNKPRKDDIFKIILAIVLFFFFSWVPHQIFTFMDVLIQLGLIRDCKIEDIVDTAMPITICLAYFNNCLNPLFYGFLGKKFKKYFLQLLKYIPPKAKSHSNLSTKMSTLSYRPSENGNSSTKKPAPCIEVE

[4] = Antagonist activity at angiotensin AT1 receptor in rat adrenal cortical membranes; type: functional, cell membranes
[5] = target: T3, Type-1 angiotensin II receptor (Homo sapiens, UniProt P30556); assay: (§2) Antagonist activity at angiotensin AT1 receptor; type: functional; conditions: read-out: pA2 (converted)
T3 sequence (P30556 whole entry): T1 sequence (whole entry) with M2I, A49V, V254I, V270I, H272R, K311R, S349T, V353A

[6] = Selectivity ratio of IC50 for angiotensin AT1 receptor to IC50 for angiotensin AT2 receptor
[7] = target: T4, Type-1 angiotensin II receptor (Oryctolagus cuniculus, UniProt P34976); assay: as §1; type: functional, tissue-based; conditions: read-out: pA2 (converted)
T4 sequence (P34976 whole entry): T1 sequence (whole entry)

[8] = target: T3, Type-1 angiotensin II receptor; assay: Binding affinity to angiotensin AT1 receptor
[9] = target: T4, Type-1 angiotensin II receptor; assay: Antagonist activity at angiotensin AT1 receptor in rabbit aorta assessed as reduction of angiotensin 2-induced contractile response; type: functional, tissue-based; conditions: read-out: pA2 (converted)
[10] = Binding affinity to angiotensin AT1 receptor in rat adrenal cortical membranes; type: cell membranes
[11] = Antagonist activity at angiotensin AT1 receptor in rat aorta; type: functional, tissue-based
Rattus norvegicus [12] = assay: Inhibition of angiotensin 2-induced response in iv dosed normotensive rat; type: functional
[13] = target: T5, Type-2 angiotensin II receptor (Homo sapiens, UniProt P50052); assay: Binding affinity to angiotensin AT2 receptor
T5 sequence (P50052 whole entry): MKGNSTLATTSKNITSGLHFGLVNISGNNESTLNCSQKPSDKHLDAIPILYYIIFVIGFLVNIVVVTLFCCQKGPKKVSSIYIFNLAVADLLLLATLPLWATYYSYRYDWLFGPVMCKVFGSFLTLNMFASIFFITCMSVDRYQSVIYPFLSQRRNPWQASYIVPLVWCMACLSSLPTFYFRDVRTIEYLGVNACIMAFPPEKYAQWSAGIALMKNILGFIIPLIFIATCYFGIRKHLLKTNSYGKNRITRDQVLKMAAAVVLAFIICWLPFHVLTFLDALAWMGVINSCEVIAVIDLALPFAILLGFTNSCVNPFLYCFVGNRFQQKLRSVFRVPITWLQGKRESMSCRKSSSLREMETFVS

Rattus norvegicus [14] = assay: Antihypertensive activity in iv dosed renal hypertensive rat model; type: functional
[15] = target: T6, Type-1 angiotensin II receptor (Homo sapiens) (UniProt P30556); assay: Ratio of compound Ki to losartan Ki for angiotensin AT1 receptor
T6 sequence (whole entry): T1 sequence (whole entry) with M2I, A49V, V254I, V270I, H272R, K311R, S349T, V353A

[16] = target: T6, Type-1 angiotensin II receptor (Homo sapiens); assay: as §2; type: functional
[17] = target: T4, Type-1 angiotensin II receptor; assay: Binding affinity to angiotensin AT1 receptor in rabbit aortic rings
[18] = target: T4, Type-1 angiotensin II receptor; assay: Antagonist activity at angiotensin AT1 receptor in rabbit aortic strip assessed as inhibition of angiotensin 2-induced contractile response; type: functional
Rattus norvegicus [19] = assay: Ratio of compound ED50 to losartan ED50 for po dosed renal hypertensive rat model; type: functional
[20] = Displacement of radiolabeled angiotensin2 from angiotensin AT1 receptor in rat adrenal cortex membranes; type: cell membranes, Membrane
Rattus norvegicus [21] = assay: Antihypertensive activity in po dosed renal hypertensive rat model; type: functional; conditions: read-out: ID50 (the source's name)

Compound: CCc1nc2c(n1Cc1ccc(-c3ccccc3-c3nn[nH]n3)cc1)/C(=C/C(=O)O)CCCC2
- IC50 [1]: 5.5 nM
- pD2 [2]: 9.91

Compound: CCCc1cc(=O)n(CC(=O)N(C)C)c(=O)n1Cc1ccc(-c2ccccc2-c2nn[nH]n2)cc1
- Activity [3]: 9.3 nM
- IC50 [4]: 0.65 nM

Compound: CCCCc1nc2ccc([C@]3(C)C[C@H]4CCCN4O3)cc2c(=O)n1Cc1ccc(-c2ccccc2-c2nn[nH]n2)cc1
- Kb [5]: 0.0126 nM

Compound: CCc1nc2ccc(NC(=O)N(C)C(C)C)cc2c(=O)n1Cc1ccc(-c2ccccc2S(=O)(=O)NC(=O)OCCC2CC2)cc1F
- Ratio IC50 [6]: 2

Compound: CCCCc1nc2ccc(C(C)(C)OC)cc2c(=O)n1Cc1ccc(-c2ccccc2-c2nn[nH]n2)cc1 [CL-329167]
- Kb [5]: 0.0126 nM
- Kb [7]: 9.77 nM
- IC50 [8]: 6 nM

Compound: CCCc1nc(C)n2[nH]c(=O)nc2c1Cc1ccc(-c2ccccc2-c2nnn[nH]2)cc1
- Ki [8]: 24 nM

Compound: C[C@@H]1CN(Cc2ccc(-c3ccccc3-c3nn[nH]n3)cc2)C[C@H](C)O1
- Kb [5]: 126 nM

Compound: CCCCc1nc(Cc2ccc(-c3ccccc3-c3nnn[nH]3)cc2)n(CCCC)n1
- Kb [5]: 3.16 nM
- IC50 [8]: 16 nM

Compound: CCOc1nc2cccc(C(=O)O)c2n1Cc1ccc(-c2ccccc2-c2nsc(O)n2)cc1
- Activity [3]: 2.5 nM

Compound: COc1c(OCc2ccc(-c3ccccc3-c3nn[nH]n3)cc2)cc(C)nc1C
- pKi [1]: 8.7
- Kb [9]: 1.51 nM

Compound: CCCCc1nc(C)n(Cc2sccc2C(=O)OC)c(=O)c1Cc1ccc(-c2ccccc2-c2nnn[nH]2)cc1
- Ki [10]: 0.9 nM

Compound: CCCCC(=O)N(Cc1ccc(-c2ccccc2-c2nnn[nH]2)cc1)[C@H](C(=O)O)C(C)C
- IC50 [11]: 2.7 nM

Compound: CCCCc1ncc(/C=C(\Cc2cccs2)C(=O)O)n1Cc1ccc(C(=O)O)cc1 [EPROSARTAN]
- ID60 (Rattus norvegicus [12]): 0.08 mg/kg

Compound: CCCc1nc2ccccc2n1C(F)(F)C(O)c1ccc(-c2ccccc2-c2nnn[nH]2)cc1 (stereo unspecified)
- Ki [13]: 480 nM
- ED30 (Rattus norvegicus [14]): 2 mg/kg
- Ki [8]: 29 nM

Compound: CCOc1nc2cccc(C(=O)O)c2n1Cc1ccc(-c2ccccc2-c2nnn[nH]2)cc1
- Ratio Ki [15]: 10
- pD2 [16]: 9.97
- IC50 [8]: 110 nM

Compound: CCCCCCC(C(=O)O)n1cnc(NC(=O)c2cccc(O)c2C(=O)O)c1 (stereo unspecified)
- Kb [7]: 100 nM

Compound: CCc1nc2c(C)cc(C)nc2n1Cc1ccc2c(c1)CCN2C(c1ccccc1)c1nnn[nH]1 (stereo unspecified)
- IC50 [17]: 1 nM

Compound: CCCCc1nc2cccc(C(=O)O)c2n1Cc1ccc(-c2ccccc2-c2nnn[nH]2)cc1
- IC50 [18]: 0.055 nM

Compound: CCCCC1=NC(Cl)=C(C(=O)O)C(C)N1Cc1ccc(-c2ccccc2-c2nnn[nH]2)cc1 (stereo unspecified)
- Ki [8]: 1 nM

Compound: CCc1nc2c(C)cc(C)nc2n1Cc1ccc(-c2ccccc2S(=O)(=O)NC(=O)c2ccccc2)cc1
- Kb [7]: 0.0501 nM

Compound: CCCc1nc(CC)c(C(=O)O)n1Cc1ccc(-c2ccccc2-c2nn[nH]n2)cc1
- Ratio ED50 (Rattus norvegicus [19]): 20
- IC50 [20]: 6 nM

Compound: CCCCc1nc(SC)c(C(=O)O)n1Cc1ccc(-c2ccccc2-c2nnn[nH]2)cc1
- ED50 (Rattus norvegicus [14]; read-out: ID50 (the source's name)): 0.05 mg/kg
- IC50 [20]: 0.2 nM
- ED50 (Rattus norvegicus [21]): 0.4 mg/kg

Compound: CCCc1cc(O)c(C)c(=O)n1Cc1ccc(-c2ccccc2-c2nn[nH]n2)cc1
- ED50 (Rattus norvegicus [12]; Rattus norvegicus, iv, read-out: ID50 (the source's name)): 0.02 mg/kg

Compound: CCCCc1nc(CCCC)n(Cc2ccc(-c3ccccc3-c3nnn[nH]3)cc2)n1
- Kb [5]: 2 nM
- IC50 [8]: 5.6 nM

Compound: CCc1nc2c(CC)cn(Cc3ccc(-c4ccccc4-c4nn[nH]n4)cc3)n2n1
- Kb [7]: 1.51 nM

Compound: Cc1ccnc2c1nc(C1CC1)n2Cc1ccc(-c2ccccc2C(=O)O)cc1
- IC50 [10]: 52 nM
- Kb [7]: 2 nM
